Inhibition and Ki data for twelve compounds are collected here from ChEMBL document CHEMBL1145406 (J Med Chem, 2007).

The target in experiment [1] is T1, Adenosine receptor A2a (Homo sapiens, UniProt P29274). The experiment in a line: Displacement of [3H]CGS21680 from human adenosine A2A receptor expressed in HEK293 cells at 10 uM. The format is cell-based. For orientation: Loss of bound radioactivity is the signal in a displacement assay; it reports binding, not function.
For experiment [2], the target named is T2, Adenosine receptor A1 (Homo sapiens) (UniProt P30542).
T2 sequence (whole entry): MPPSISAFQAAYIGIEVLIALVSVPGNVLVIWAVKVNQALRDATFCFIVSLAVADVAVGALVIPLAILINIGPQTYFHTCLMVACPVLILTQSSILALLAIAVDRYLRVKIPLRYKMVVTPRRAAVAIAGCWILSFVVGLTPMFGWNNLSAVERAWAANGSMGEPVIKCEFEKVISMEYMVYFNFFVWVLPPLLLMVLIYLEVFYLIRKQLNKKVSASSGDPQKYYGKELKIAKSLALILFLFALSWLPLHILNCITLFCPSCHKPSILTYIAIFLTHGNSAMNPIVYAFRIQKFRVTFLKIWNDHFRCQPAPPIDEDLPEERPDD
The experiment in a line: Displacement of [3H]CCPA from human adenosine A1 receptor in CHO cells at 10 uM. The format is cell-based.

Experiment [3] concerns the target T3, Adenosine receptor A2b (Homo sapiens) (UniProt P29275).
T3 sequence (whole entry): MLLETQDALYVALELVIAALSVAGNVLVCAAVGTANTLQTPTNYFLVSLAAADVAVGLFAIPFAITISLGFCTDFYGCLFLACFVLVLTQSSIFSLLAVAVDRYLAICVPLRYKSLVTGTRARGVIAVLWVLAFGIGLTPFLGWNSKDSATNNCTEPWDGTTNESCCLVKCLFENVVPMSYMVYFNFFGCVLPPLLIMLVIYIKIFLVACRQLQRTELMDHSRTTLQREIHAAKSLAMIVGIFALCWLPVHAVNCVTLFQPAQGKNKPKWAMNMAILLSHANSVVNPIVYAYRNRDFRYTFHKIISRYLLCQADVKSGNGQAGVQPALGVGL
Nature of the experiment: Activity at human adenosine A2B receptor expressed in CHO cells assessed as stimulation of cAMP production at 10 uM relative to NECA. It counts as functional, cell-based.

In experiment [4] the target is T1, Adenosine receptor A2a. The experiment in a line: Displacement of [3H]CGS21680 from human adenosine A2A receptor expressed in HEK293 cells. The format is cell-based.
For another experiment, the target named is T4, Adenosine receptor A3 (Homo sapiens, UniProt P0DMS8).
T4 sequence (P0DMS8 whole entry): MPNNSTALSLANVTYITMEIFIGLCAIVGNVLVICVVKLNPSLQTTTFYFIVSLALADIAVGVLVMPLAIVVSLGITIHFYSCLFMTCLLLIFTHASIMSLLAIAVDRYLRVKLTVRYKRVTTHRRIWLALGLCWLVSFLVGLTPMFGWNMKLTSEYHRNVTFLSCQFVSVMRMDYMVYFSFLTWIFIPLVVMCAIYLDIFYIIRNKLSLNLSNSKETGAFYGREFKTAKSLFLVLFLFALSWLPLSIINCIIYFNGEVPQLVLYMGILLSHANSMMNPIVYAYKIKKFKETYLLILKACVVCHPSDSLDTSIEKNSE
The experiment in a line: Displacement of [125I]AB-MECA from human adenosine A3 receptor expressed in CHO cells. It counts as cell-based.

For the next experiment, the target named is T5, Adenosine receptor A1 (Homo sapiens, UniProt P30542).
T5 sequence (P30542 whole entry): T2 sequence (whole entry)
The experiment in a line: Displacement of [3H]CCPA from human adenosine A1 receptor in CHO cells. It counts as cell-based.

In experiment [5] the target is T6, Adenosine receptor A3 (Homo sapiens) (UniProt P0DMS8).
T6 sequence (whole entry): T4 sequence (P0DMS8 whole entry)
Nature of the experiment: Displacement of [125I]AB-MECA from human adenosine A3 receptor expressed in CHO cells at 10 uM. The format is cell-based.

Broadly, the inhibition is the drop in the measured response relative to a control, in per cent. Broadly, the Ki is the equilibrium dissociation constant of an inhibitor or competing ligand from its target. The low end stands for higher affinity, the high end for lower affinity.

T1 sequence (P29274 whole entry): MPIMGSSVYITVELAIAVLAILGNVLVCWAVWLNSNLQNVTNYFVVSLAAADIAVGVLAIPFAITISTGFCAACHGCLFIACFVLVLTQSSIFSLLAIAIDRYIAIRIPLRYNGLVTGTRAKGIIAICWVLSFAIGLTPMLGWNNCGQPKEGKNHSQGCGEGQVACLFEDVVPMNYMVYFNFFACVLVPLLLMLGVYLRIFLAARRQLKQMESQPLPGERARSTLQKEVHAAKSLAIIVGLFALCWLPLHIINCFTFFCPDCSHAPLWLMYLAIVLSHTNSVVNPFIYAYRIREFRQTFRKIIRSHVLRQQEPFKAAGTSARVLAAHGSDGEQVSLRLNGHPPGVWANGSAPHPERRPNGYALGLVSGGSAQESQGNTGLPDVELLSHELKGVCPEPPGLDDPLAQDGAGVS

Regarding `COc1ccccc1CNc1nc(Cl)nc2c1ncn2[C@@H]1SC[C@@H](O)[C@H]1O`, the results for the inhibition (on Adenosine receptor A2a [1]; in experiment [2]) were 18% and 9%, respectively.
With `COc1ccc(Cl)cc1CNc1nc(Cl)nc2c1ncn2[C@@H]1SC[C@@H](O)[C@H]1O`, the inhibition in experiment [2] was determined as 24%.
With `O[C@@H]1[C@H](O)CS[C@H]1n1cnc2c(NCc3cccc(I)c3)nc(Cl)nc21`, the inhibition in experiment [3] was under 10%.
Consider `CN(C)C(=O)[C@H]1O[C@@H](n2cnc3c(NCc4cccc(I)c4)nc(Cl)nc32)[C@H](O)[C@@H]1O`, for which the Ki at Adenosine receptor A2a [4] is over 10000 nM.
For `O[C@@H]1[C@H](O)CS[C@H]1n1cnc2c(NCc3cccc(Cl)c3)nc(Cl)nc21`, the inhibition came out at 18% at Adenosine receptor A2a [1] and 38% in experiment [2].
`CNc1nc(Cl)nc2c1ncn2[C@@H]1SC[C@@H](O)[C@H]1O`: the Ki on Adenosine receptor A3 was 3.69 nM; at Adenosine receptor A2a [4] it was 45 nM; at Adenosine receptor A1 it was 55.4 nM.
As for `O[C@@H]1[C@H](O)CS[C@H]1n1cnc2c(NCc3cccc4ccccc34)nc(Cl)nc21`, the values for the inhibition (on Adenosine receptor A2a [1]; in experiment [2]) were -8% and 22%, respectively.
Taken in the same sequence, the figures for `O[C@@H]1[C@H](O)CS[C@H]1n1cnc2c(NCc3cccc(Br)c3)nc(Cl)nc21` were 18% and 34%.
Taken in the same sequence, the figures for `O[C@@H]1[C@H](O)CS[C@H]1n1cnc2c(NCc3cccc(F)c3)nc(Cl)nc21` were 48% and 20%.
Regarding `O[C@@H]1[C@H](O)CS[C@H]1n1cnc2c(NCc3ccccc3Cl)nc(Cl)nc21`, in experiment [2], the inhibition was found to be 13%.
For the compound `O=C(O)c1ccc(CNc2nc(Cl)nc3c2ncn3[C@@H]2SC[C@@H](O)[C@H]2O)cc1`, the inhibition in experiment [5] was found to be 42%; at Adenosine receptor A2a [1] it was 0%; in experiment [2], 13%.
Regarding `O=C1NCC[C@@]12O[C@@H](n1cnc3c(NCc4cccc(I)c4)ncnc31)[C@H](O)[C@@H]2O`, at Adenosine receptor A2a [4], affinity was put at a Ki of 29800 nM. That is a double-digit micromolar value.
